Experimental data published in ChEMBL document CHEMBL2321810, “QSAR investigation of NaV1.7 active compounds using the SVM/Signature approach and the Bioclipse Modeling platform” (Bioorg Med Chem Lett, 2013).

The compounds below were run against Sodium channel protein type 9 subunit alpha (Homo sapiens, UniProt Q15858) (assay: cell-based).
Sequence of Sodium channel protein type 9 subunit alpha (Q15858 whole entry): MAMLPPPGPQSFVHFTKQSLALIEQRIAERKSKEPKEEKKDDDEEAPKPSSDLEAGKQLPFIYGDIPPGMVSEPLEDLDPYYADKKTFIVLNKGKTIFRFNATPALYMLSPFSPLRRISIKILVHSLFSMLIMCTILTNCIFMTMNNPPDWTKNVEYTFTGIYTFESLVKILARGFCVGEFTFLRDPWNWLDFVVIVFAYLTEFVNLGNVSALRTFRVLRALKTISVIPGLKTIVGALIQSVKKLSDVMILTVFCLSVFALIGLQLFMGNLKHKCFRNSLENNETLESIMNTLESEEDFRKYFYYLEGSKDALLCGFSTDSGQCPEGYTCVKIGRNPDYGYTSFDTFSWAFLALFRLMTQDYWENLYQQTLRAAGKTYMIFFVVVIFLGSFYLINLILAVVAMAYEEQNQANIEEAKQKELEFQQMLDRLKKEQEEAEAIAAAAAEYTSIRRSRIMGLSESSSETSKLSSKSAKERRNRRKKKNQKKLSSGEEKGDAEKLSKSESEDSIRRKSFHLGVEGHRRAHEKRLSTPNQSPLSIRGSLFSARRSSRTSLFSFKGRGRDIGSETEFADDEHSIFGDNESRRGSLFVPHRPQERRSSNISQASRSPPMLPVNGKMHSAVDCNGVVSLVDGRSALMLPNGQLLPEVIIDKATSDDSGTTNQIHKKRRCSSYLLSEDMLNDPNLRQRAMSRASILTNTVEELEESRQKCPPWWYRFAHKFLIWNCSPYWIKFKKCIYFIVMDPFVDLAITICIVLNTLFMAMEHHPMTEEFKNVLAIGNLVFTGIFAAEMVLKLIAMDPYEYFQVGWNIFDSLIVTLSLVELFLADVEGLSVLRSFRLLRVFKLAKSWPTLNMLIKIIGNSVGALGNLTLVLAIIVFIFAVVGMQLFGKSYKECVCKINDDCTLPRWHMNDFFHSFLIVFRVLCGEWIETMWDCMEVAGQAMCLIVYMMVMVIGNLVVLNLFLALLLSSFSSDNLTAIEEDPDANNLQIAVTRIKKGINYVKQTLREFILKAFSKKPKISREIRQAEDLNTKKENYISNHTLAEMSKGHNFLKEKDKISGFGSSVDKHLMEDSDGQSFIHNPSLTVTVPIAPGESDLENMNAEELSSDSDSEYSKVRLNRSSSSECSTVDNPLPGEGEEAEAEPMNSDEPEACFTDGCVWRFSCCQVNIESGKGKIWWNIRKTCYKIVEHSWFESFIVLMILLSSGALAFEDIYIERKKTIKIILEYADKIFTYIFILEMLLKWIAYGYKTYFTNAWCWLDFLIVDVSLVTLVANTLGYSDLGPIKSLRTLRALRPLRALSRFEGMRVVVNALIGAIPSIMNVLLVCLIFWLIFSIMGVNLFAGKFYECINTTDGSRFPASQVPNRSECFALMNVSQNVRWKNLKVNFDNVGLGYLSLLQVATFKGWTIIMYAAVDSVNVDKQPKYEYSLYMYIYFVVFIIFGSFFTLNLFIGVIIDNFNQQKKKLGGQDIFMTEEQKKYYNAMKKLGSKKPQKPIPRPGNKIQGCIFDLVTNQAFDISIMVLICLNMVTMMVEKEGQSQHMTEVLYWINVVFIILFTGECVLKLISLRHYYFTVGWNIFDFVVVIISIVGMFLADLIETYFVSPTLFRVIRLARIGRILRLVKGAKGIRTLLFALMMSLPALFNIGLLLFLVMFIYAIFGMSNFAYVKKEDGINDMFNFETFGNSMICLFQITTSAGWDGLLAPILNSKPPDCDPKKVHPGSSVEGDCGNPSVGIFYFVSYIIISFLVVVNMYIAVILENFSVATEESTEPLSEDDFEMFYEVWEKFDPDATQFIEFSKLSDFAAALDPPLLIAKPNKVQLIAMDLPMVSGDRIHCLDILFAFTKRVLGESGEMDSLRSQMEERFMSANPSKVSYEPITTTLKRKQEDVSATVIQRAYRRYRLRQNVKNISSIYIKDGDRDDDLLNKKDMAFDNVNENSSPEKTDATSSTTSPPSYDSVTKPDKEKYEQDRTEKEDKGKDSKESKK

SMILES	IC50
N#Cc1cc(S(=O)(=O)Nc2nccs2)ccc1Oc1cccc(-n2ccc(C(F)(F)F)n2)c1	930 nM
N#Cc1cc(S(=O)(=O)Nc2nncs2)ccc1Oc1ccc(Cl)cc1-c1cc(N2CCOCC2)ncn1	1000 nM
N#Cc1cc(S(=O)(=O)Nc2nccs2)ccc1Oc1ccc(-c2cc(C3CC3)n[nH]2)c(Cl)c1	1000 nM
N#Cc1cc(S(=O)(=O)Nc2nccs2)ccc1Oc1ccc(-n2cc(C(N)=O)cn2)cc1	1000 nM
N#Cc1cc(S(=O)(=O)Nc2cscn2)ccc1Oc1ccc(Cl)cc1-c1ccn(C(F)(F)F)n1	1000 nM
Cc1cc(C)n(-c2ccc(Oc3ccc(S(=O)(=O)Nc4nccs4)c(F)c3)cc2)n1	1000 nM
N#Cc1cc(SNc2ncns2)ccc1Oc1ccc(F)cc1C1CC1	1000 nM
N#Cc1cc(S(=O)(=O)Nc2ncns2)ccc1Oc1ccc(-n2cc(COC(=O)C(F)(F)F)cn2)cc1	1000 nM
N#Cc1cc(S(=O)(=O)Nc2ncns2)ccc1Oc1ccc(-n2cc(CO)cn2)cc1	1000 nM
CC(C)C1CN(c2ccc(Oc3ccc(S(=O)(=O)Nc4nccs4)cc3C#N)cc2)C(=O)N1 (stereo unspecified)	1000 nM
COC(=O)c1cc(Oc2ccc(S(=O)(=O)Nc3nccs3)cc2C#N)ccc1-n1cc(Cl)cn1	1000 nM
Cc1cccc(-c2ccc(OC(C)C)cc2)c1Oc1ccc(S(=O)(=O)Nc2ncns2)cc1C#N	840 nM
N#Cc1cc(S(=O)(=O)Nc2ncc(F)s2)ccc1Oc1ccccc1-c1ccccc1	530 nM
N#Cc1cc(S(=O)(=O)Nc2nccs2)ccc1Oc1ccc(-c2cc(C(F)(F)F)ccn2)cc1	370 nM
Cn1cnc(-c2cc(Cl)ccc2Oc2ccc(S(=O)(=O)Nc3nccs3)cc2C#N)n1	300 nM
O=S(=O)(Nc1cscn1)c1cc(Cl)c(Oc2ccc(C(F)(F)F)cc2-c2cncc(CO)c2)cc1F	300 nM
Cn1ncnc1-c1cc(Cl)ccc1Oc1ccc(S(=O)(=O)Nc2ncc(F)s2)cc1C#N	300 nM
CC(C)Oc1cc(-c2cc(F)ccc2Oc2ccc(S(=O)(=O)Nc3nccs3)cc2C#N)n(C)n1	1000 nM
N#Cc1cc(S(=O)(=O)Nc2nccs2)ccc1Oc1cnn(-c2ccc(Cl)cc2)c1	1000 nM
N#Cc1cc(S(=O)(=O)Nc2nccs2)ccc1Oc1cnn(-c2ccc(Cl)cc2Cl)c1	1000 nM

The remaining lines, values ahead:

IC50	SMILES
1000 nM	CCn1nc(C(F)(F)F)cc1-c1cccc(Oc2ccc(S(=O)(=O)Nc3ccc(F)cn3)cc2C#N)c1
1000 nM	N#Cc1cc(S(=O)(=O)Nc2nccs2)ccc1Oc1ccc(-c2cc(C(F)(F)F)n(CCCF)n2)cc1F
1000 nM	CC1CN(c2ccc(Oc3ccc(S(=O)(=O)Nc4nccs4)cc3C#N)cc2)C(=O)N1 (stereo unspecified)
1000 nM	O=S(=O)(Nc1cscn1)c1cc(Cl)c(Oc2cc(C(F)(F)F)ccc2-c2cncnc2)cc1F
1000 nM	Cn1cnnc1-c1cc(Cl)ccc1Oc1ccc(S(=O)(=O)Nc2nccs2)cc1F
740 nM	N#Cc1cc(S(=O)(=O)Nc2ncns2)cc(F)c1Oc1ccc(F)cc1-c1cn[nH]c1
770 nM	CCn1nc(C(F)(F)F)cc1-c1ccc(Oc2ccc(S(=O)(=O)Nc3nncs3)cc2C#N)cc1
820 nM	CCn1nc(C(F)(F)F)cc1-c1ccc(Oc2ccc(S(=O)(=O)Nc3ncc(F)s3)cc2F)cc1
580 nM	N#Cc1cc(S(=O)(=O)Nc2nccs2)ccc1Oc1ccc(Cl)cc1-c1ccccn1
670 nM	N#Cc1cc(S(=O)(=O)Nc2ncns2)ccc1Oc1ccccc1-c1cccc(F)c1
740 nM	CN(C)C(=O)c1cccc(-c2ccccc2)c1Oc1ccc(S(=O)(=O)c2ncns2)cc1C#N
430 nM	N#Cc1cc(S(=O)(=O)Nc2nccs2)ccc1Oc1ccc(Cl)cc1-c1c[nH]nc1C(F)(F)F
350 nM	CC(C)(C)OC(=O)N1CCC(c2cc(Cl)ccc2Oc2ccc(S(=O)(=O)Nc3ncns3)cc2C#N)CC1
300 nM	CCn1nc(C)c(-c2ccccc2Oc2ccc(S(=O)(=O)Nc3ncns3)cc2C#N)c1C
300 nM	CCOCn1nncc1-c1cc(Cl)ccc1Oc1ccc(S(=O)(=O)Nc2nccs2)cc1C#N
1000 nM	CCn1nc(-c2ccc(Oc3ccc(S(=O)(=O)Nc4nccs4)cc3C#N)c(F)c2)cc1C(F)(F)F
